Molecules are shown by their SMILES. pIC50: −log10 of the molar value. Calls of active or inactive are those of the source. The calls are words filed in the database; no cut-off is given here.

The text below walks through data of ChEMBL document CHEMBL5715958 (Mol Cancer Res, 2018).

The subject of test [1] is L-M(TK-). Briefly: Effect on beta-catenin protein level in mouse L-M(TK-) cells at 5 uM incubated for 6 hrs by Western blotting analysis. In kind it is functional, cell-based. (In general: Immunoblotting shows a protein as a band on a membrane.)
The target in test [2] is Calcium/calmodulin-dependent protein kinase type II subunit beta (Homo sapiens, UniProt Q13554). Briefly: Inhibition of human CAMK2beta preincubated with compound for 20 mins followed by [33P]ATP addition and measured after 2 hrs by filter binding method.
The test system of test [3] is RKO. Briefly: Effect on beta-catenin protein level in human RKO cells at 5 uM incubated for 6 hrs by Western blotting analysis. The class given is functional, cell-based.
Test [4] deals with Glycogen synthase kinase-3 beta (Homo sapiens) (UniProt P49841). Briefly: Inhibition of MIB binding to GSK3beta in human NCI-H2228 cells at 0.01 to 10 uM incubated for 1 hr by Western blotting analysis. In kind it is cell-based. The following applies: dose 0.01-10 µM.
Test [5] addresses Cyclin-dependent kinase 4 (Homo sapiens) (UniProt P11802). The test can be described thus: Inhibition of MIB binding to CDK4 in human NCI-H2228 cells at 0.01 to 10 uM incubated for 1 hr by Western blotting analysis. In kind it is cell-based. The settings on record: dose 0.01-10 µM.
Test [6] has as its target Calcium/calmodulin-dependent protein kinase type II subunit gamma (Homo sapiens, UniProt Q13555). Briefly: Inhibition of human CAMK2gamma preincubated with compound for 20 mins followed by [33P]ATP addition and measured after 2 hrs by filter binding method.
For test [7], the target named is Calcium/calmodulin-dependent protein kinase type II subunit delta (Homo sapiens, UniProt Q13557). Briefly: Inhibition of human CAMK2delta preincubated with compound for 20 mins followed by [33P]ATP addition and measured after 2 hrs by filter binding method.
Test [8] has as its target Dual specificity mitogen-activated protein kinase kinase 1 (Homo sapiens) (UniProt Q02750). Briefly: Inhibition of MIB binding to MEK1 in human NCI-H2228 cell lysate at 3 to 3000 uM pre-incubated with MIB followed by compound addition measured after 1 hr by Western blotting analysis. The class given is subcellular. The following applies: dose 3-3000 µM.
Test [9] has the same target. The test can be described thus: Inhibition of MIB binding to MEK1 in human NCI-H2228 cells at 3 to 3000 uM incubated for 1 hr by Western blotting analysis. In kind it is cell-based. The following applies: dose 3-3000 µM.
In test [10] the target is Dual specificity mitogen-activated protein kinase kinase 2 (Homo sapiens) (UniProt P36507). The test can be described thus: Inhibition of MIB binding to MEK2 in human NCI-H2228 cell lysate at high dose incubated for 1 hr by Western blotting analysis. The class given is subcellular. The settings on record: dose 3-3000 µM.
Test [11] has the same target. Briefly: Inhibition of MIB binding to MEK2 in human NCI-H2228 cells at 3 to 3000 uM incubated for 1 hr by Western blotting analysis. In kind it is cell-based. The following applies: dose 3-3000 µM.
Test [12] has as its target Tyrosine-protein kinase receptor UFO (Homo sapiens) (UniProt P30530). The test can be described thus: Inhibition of MIB binding to AXL in human NCI-H2228 cell lysate at high dose incubated for 1 hr by Western blotting analysis. The settings on record: dose 3-3000 µM. In kind it is subcellular.
Test [13] deals with Mus musculus. The test can be described thus: Inhibition of MIB binding to MEK1 in mouse kidney at 3 mg/kg, po measured after 2 hr by MIB/MS competitive binding analysis. In kind it is functional, organism-based.
Test [14] deals with Dual specificity mitogen-activated protein kinase kinase 2 (Homo sapiens) (UniProt P36507). The test can be described thus: Inhibition of MIB binding to MEK2 in human NCI-H2228 cell lysate at 3 to 3000 uM pre-incubated with MIB followed by compound addition measured after 1 hr by Western blotting analysis. The class given is subcellular. The settings on record: dose 3-3000 µM.

Test [15] deals with Tyrosine-protein kinase receptor UFO (Homo sapiens) (UniProt P30530). Briefly: Inhibition of MIB binding to AXL in human NCI-H2228 cell lysate at 3 to 3000 uM pre-incubated with MIB followed by compound addition measured after 1 hr by Western blotting analysis. In kind it is subcellular. The settings on record: dose 3-3000 µM.
The target is the same in test [16]. The test can be described thus: Inhibition of MIB binding to AXL in human NCI-H2228 cells at 3 to 3000 uM incubated for 1 hr by Western blotting analysis. The class given is cell-based. The settings on record: dose 3-3000 µM.
In test [17] the target is Dual specificity mitogen-activated protein kinase kinase 1 (Homo sapiens) (UniProt Q02750). Briefly: Inhibition of MIB binding to MEK1 in human NCI-H2228 cell lysate at high dose incubated for 1 hr by Western blotting analysis. The class given is subcellular.
For test [18], the system named is Mus musculus. The test can be described thus: Inhibition of MIB binding to MEK2 in mouse kidney at 3 mg/kg, po measured after 2 hr by MIB/MS competitive binding analysis. In kind it is functional, organism-based.
Test [19] addresses Tyrosine-protein kinase Yes (Homo sapiens) (UniProt P07947). The test can be described thus: Inhibition of MIB binding to YES1 in human NCI-H2228 cells at 0.01 to 10 uM incubated for 1 hr by MIB/MS competitive binding analysis. In kind it is cell-based. The following applies: dose 0.01-10 µM.
Test [20] concerns the target Tyrosine-protein kinase Lyn (Homo sapiens) (UniProt P07948). The test can be described thus: Inhibition of MIB binding to LYN in human NCI-H2228 cells at 0.01 to 10 uM incubated for 1 hr by MIB/MS competitive binding analysis. The class given is cell-based. The following applies: dose 0.01-10 µM.

Dual specificity mitogen-activated protein kinase kinase 2 (Homo sapiens), sequence (P36507 whole entry): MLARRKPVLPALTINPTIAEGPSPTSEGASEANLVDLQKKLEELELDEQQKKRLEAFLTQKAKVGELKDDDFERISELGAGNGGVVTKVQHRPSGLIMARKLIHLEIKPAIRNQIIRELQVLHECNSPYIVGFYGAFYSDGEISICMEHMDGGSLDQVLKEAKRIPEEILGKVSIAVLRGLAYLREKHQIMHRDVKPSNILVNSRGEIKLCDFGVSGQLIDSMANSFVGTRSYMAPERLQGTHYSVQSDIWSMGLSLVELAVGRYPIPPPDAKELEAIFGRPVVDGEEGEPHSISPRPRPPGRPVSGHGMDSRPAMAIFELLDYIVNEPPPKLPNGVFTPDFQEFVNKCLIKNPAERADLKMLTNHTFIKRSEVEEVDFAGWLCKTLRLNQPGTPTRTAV
Dual specificity mitogen-activated protein kinase kinase 1 (Homo sapiens), sequence (Q02750 whole entry): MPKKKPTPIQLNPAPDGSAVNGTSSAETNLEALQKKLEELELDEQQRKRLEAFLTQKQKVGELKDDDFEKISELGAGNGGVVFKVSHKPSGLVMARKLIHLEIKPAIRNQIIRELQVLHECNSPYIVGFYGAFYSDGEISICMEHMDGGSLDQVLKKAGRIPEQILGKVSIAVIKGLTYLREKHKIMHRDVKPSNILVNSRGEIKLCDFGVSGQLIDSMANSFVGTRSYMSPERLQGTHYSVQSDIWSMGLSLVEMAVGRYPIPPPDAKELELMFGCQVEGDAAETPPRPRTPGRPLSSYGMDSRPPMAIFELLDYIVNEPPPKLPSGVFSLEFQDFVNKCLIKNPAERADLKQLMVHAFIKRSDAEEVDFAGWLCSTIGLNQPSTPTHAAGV
Tyrosine-protein kinase receptor UFO (Homo sapiens), sequence (P30530 whole entry): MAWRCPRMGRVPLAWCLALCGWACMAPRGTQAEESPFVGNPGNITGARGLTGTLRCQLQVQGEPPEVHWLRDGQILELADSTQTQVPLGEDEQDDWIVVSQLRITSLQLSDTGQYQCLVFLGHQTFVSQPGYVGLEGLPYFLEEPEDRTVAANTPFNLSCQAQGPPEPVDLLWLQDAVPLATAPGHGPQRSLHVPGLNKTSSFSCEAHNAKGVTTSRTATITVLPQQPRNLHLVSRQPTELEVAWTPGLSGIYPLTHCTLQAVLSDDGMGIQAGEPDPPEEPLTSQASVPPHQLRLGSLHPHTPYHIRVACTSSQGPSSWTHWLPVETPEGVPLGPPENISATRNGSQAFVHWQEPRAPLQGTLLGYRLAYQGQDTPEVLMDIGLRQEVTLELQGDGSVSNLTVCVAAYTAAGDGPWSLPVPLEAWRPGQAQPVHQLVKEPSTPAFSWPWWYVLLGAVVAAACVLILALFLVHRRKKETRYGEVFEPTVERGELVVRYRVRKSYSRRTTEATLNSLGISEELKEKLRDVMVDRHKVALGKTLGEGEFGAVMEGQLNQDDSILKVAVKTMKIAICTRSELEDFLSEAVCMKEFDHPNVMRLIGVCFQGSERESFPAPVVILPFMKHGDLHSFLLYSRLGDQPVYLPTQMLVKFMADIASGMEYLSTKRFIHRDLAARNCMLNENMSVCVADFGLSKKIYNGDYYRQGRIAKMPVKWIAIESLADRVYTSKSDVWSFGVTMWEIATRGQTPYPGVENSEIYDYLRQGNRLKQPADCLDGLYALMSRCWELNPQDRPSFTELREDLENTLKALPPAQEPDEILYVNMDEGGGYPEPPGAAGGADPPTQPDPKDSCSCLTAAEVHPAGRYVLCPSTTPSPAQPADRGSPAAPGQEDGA
Calcium/calmodulin-dependent protein kinase type II subunit beta, sequence (Q13554 whole entry): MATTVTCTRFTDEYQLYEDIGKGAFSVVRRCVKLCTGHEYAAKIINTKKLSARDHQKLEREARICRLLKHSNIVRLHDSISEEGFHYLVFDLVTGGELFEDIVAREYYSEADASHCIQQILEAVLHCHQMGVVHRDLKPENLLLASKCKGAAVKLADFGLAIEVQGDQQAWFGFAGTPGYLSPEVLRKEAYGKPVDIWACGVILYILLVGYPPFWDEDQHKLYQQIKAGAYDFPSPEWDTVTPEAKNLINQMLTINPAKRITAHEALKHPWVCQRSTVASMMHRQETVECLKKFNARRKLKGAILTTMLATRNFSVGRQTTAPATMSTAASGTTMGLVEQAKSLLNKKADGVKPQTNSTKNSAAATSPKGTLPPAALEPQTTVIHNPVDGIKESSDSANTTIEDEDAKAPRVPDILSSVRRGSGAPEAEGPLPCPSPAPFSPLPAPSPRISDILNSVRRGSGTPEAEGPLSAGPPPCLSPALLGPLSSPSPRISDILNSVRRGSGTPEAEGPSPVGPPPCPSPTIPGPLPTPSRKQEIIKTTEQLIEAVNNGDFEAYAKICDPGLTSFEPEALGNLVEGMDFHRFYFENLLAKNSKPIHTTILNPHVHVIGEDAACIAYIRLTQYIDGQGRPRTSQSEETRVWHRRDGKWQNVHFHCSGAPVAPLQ
Tyrosine-protein kinase Lyn (Homo sapiens), sequence (P07948 2-512 limits assumed): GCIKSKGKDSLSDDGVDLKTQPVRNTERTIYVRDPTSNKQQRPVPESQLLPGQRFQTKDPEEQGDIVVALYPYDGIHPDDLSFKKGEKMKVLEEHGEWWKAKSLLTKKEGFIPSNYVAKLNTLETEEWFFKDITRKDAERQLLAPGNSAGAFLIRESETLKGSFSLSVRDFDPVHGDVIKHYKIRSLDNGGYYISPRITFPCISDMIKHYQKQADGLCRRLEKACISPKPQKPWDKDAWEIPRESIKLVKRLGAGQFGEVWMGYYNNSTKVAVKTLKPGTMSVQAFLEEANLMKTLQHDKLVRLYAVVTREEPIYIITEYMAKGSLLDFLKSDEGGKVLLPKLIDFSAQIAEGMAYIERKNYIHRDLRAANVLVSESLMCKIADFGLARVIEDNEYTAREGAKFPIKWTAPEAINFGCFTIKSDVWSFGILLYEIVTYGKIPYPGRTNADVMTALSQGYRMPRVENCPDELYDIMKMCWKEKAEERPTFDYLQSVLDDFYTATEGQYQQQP
Calcium/calmodulin-dependent protein kinase type II subunit delta, sequence (Q13557 whole entry): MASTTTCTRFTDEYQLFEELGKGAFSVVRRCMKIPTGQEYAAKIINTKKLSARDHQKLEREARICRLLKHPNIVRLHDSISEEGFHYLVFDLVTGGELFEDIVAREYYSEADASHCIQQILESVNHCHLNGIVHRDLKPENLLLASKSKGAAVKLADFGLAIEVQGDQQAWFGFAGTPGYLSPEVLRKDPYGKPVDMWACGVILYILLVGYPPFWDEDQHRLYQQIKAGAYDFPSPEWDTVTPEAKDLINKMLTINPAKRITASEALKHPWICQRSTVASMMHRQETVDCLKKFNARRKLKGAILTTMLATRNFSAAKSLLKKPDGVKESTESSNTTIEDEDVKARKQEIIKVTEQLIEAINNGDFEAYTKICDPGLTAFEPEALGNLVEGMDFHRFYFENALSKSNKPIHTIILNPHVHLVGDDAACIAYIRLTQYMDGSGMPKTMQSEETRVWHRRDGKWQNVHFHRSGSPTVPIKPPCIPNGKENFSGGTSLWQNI
Cyclin-dependent kinase 4 (Homo sapiens), sequence (P11802 whole entry): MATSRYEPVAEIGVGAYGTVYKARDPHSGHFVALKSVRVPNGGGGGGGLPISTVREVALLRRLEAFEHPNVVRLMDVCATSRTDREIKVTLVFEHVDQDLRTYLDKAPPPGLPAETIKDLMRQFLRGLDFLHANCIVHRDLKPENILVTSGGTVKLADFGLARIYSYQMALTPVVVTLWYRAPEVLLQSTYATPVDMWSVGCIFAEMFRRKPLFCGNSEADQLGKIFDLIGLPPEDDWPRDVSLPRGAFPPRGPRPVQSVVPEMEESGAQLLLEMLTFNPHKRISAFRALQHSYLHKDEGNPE
Calcium/calmodulin-dependent protein kinase type II subunit gamma, sequence (Q13555 whole entry): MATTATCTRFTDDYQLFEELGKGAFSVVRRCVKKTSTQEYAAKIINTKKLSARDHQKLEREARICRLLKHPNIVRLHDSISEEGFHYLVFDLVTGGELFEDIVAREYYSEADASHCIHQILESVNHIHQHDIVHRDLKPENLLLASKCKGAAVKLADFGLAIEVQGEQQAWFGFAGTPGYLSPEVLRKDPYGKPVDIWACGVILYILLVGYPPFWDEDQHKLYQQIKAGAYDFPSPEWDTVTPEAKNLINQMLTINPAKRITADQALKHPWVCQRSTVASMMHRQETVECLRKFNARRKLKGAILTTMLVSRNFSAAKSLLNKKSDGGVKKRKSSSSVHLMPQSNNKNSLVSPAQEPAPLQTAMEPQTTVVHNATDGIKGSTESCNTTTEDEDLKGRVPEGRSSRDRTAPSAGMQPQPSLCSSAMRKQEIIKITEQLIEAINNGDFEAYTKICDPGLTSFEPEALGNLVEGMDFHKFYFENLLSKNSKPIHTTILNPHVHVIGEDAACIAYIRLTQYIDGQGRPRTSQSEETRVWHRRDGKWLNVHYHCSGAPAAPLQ
Glycogen synthase kinase-3 beta (Homo sapiens), sequence (P49841 whole entry, looked up): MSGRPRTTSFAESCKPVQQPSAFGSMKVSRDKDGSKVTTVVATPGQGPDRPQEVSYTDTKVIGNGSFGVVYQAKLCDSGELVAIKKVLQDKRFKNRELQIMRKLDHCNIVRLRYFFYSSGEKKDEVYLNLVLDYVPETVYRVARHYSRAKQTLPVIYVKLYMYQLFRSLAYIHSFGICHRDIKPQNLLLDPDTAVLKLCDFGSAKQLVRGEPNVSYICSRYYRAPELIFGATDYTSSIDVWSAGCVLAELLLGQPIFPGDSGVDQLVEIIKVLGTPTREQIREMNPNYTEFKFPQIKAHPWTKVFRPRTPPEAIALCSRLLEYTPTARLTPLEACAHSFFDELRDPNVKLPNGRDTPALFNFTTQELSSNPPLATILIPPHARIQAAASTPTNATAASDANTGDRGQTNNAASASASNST

On to `CC(=O)c1c(C)c2cnc(Nc3ccc(N4CCNCC4)cn3)nc2n(C2CCCC2)c1=O` [PALBOCICLIB], for which the result in [1] and in test [3] was inactive. The pIC50 (as a rule, the negative decadic logarithm of the IC50, by convention in mol/L) in test [2] was 5.80.
`CN(C)C(=O)c1cc2cnc(Nc3ccc(N4CCNCC4)cn3)nc2n1C1CCCC1`: the inhibition result in [4] is “inactive”. The inhibition entry in test [5] is “Active”.
As for `CCN1CCN(Cc2ccc(Nc3ncc(F)c(-c4cc(F)c5nc(C)n(C(C)C)c5c4)n3)nc2)CC1` [ABEMACICLIB], the negative logarithm of the IC50 (pIC50) in test [2] is 8.46; in [6] it was 7.28; in test [7], 8.59.
For `CC(=O)Nc1cccc(-n2c(=O)n(C3CC3)c(=O)c3c(Nc4ccc(I)cc4F)n(C)c(=O)c(C)c32)c1`, the inhibition result in test [8], in [9], in [10], in test [11], in test [13] and in test [14] was “Active” throughout. Besides, the inhibition entry in test [17] and in test [18] was “Active” each time. Moreover, the inhibition entry in test [12], in test [15] and in test [16] was “inactive” throughout.
For the compound `Cc1nc(Nc2ncc(C(=O)Nc3c(C)cccc3Cl)s2)cc(N2CCN(CCO)CC2)n1`, the inhibition entry in test [19] and in test [20] was “Active” in each case.
